SMILES strings stand for the structures.

The target in the experiment is T1, human 11β-HSD1 (Homo sapiens, UniProt P28845).
T1 construct: host or cells: microsome fraction
Nature of the experiment: Enzymatic 11beta-HSD1 test (SPA-based detection). Format: biochemical. The note with it: human 11β-HSD1 microsome fraction, [1,2-3H]-cortisone, NADPH, 37° C. 1 hour. The method, then:
Enzymatic 11beta-HSD1 test:
To measure the activity of the compounds, an SPA-based detection method (Solly et al. 2005) was employed. First of all, 20 μl of the human 11β-HSD1 microsome fraction (0.2 μg of protein), prepared in 50 mM HEPES, 0.1% BSA (w/v), were applied to a plate with 384 wells. The test compounds (0.09 μl) were applied to the assay plate in 100% DMSO. The reaction was started by addition of 20 μl of [1,2-^3H]-cortisone (0.1 μCi/[…]) in assay buffer comprising 25 mM HEPES, 100 mM KCl, 5 mM NaCl, 2 mM MgCl2 and 0.25 mM NADPH. The plate was agitated at 37° C. for 1 hour. At the same time, a stop solution comprising 20 mg/ml SPA-PVT beads, 1.6 mg/ml monoclonal cortisol antibody and 0.01 mM SSR110887 (inhibitor from the Biovitrium patent) in 50 mM HEPES, 1 M NaCl and 1 M KCl was stirred at room temperature. To stop the reaction, 25 μl of the stop solution were added to each well. The plate was agitated gently at room temperature for 1 further hour and then centrifuged at 500 gav for 1 minute, in order that the SPA beads could settle out. The plate was then read in a Wallac-1450-Microbeta unit with a standard SPA program (counting time 1 min/well). The comparative compound was glycyrrhetinic acid.
Protein and radioactive substrate were dispensed with a Biomek FX unit (Beckman Coulter) for handling liquids. The test compounds were added with a Cybi-Well equipped with a 90 nl pin tool (CyBio).
Lit.: Solly S, Mundt S S, Zokian H J, Juy-Fang Ding G, Hermanowski-Vosatka A, Strulovici B and Zheng W. High-throughput screening of 11β-Hydroxysteroid dehydrogenase type 1 in scintillation proximity format. Assay Drug Dev Technol 2005; 3:377-384.

T1 sequence (P28845 whole entry): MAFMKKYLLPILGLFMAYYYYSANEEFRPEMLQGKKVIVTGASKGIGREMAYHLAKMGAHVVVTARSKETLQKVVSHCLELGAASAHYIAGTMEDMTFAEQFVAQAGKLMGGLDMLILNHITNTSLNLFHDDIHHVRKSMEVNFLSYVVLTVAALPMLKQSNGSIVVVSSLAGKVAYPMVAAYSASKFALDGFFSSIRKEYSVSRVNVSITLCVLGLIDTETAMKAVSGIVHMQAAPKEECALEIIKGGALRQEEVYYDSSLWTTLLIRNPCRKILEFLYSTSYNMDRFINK

The term IC50 denotes the concentration needed to halve the response being measured. Read a high IC50 as lower potency. With `C[C@H](NC1=NS(=O)(=O)C(C)(c2ccccc2)C(C)(C)O1)c1ccccc1F` (stereo partly drawn) [Compound 57, [(S)-1-(2-Fluorophenyl)ethyl]-(5,6,6-trimethyl-4,4-dioxo-5-phenyl-5,6-dihydro-4H-4lambda6-[1,4,3]oxathiazin-2-yl)amine, stereomer 2], the midpoint of inhibition, the IC50, lay at 7 nM.
In the case of `CC(C)(C)c1ccc(C2C(C)(C)OC(N[C@@H](CCO)c3ccccc3F)=NS2(=O)=O)cc1` (stereo partly drawn) [Compound 58, (S)-3-[5-(4-tert-Butylphenyl)-6,6-dimethyl-4,4-dioxo-5,6-dihydro-4H-4lambda6-[1,4,3]oxathiazin-2-ylamino]-3-(2-fluorophenyl)propan-1-ol] it was 21 nM; in that of `C[C@H](NC1=NS(=O)(=O)C(c2ccc(C(C)(C)C)cc2)C(C)(C)O1)c1ccccc1F` (stereo partly drawn) [Compound 59, [5-(4-tert-Butylphenyl)-6,6-dimethyl-4,4-dioxo-5,6-dihydro-4H-4lambda6-[1,4,3]oxathiazin-2-yl]-[(S)-1-(2-fluorophenyl)ethyl]amine], 55 nM; in that of `CC(C)(C)c1ccc(C2C(C)(C)OC(N[C@@H](CCO)c3ccccc3)=NS2(=O)=O)cc1` (stereo partly drawn) [Compound 60, (S)-3-[5-(4-tert-Butylphenyl)-6,6-dimethyl-4,4-dioxo-5,6-dihydro-4H-4lambda6-[1,4,3]oxathiazin-2-ylamino]-3-phenylpropan-1-ol], 43 nM.
As to `CC(C)(C)c1ccc(C2(C)C(C)(C)OC(N[C@@H](CCO)c3ccccc3F)=NS2(=O)=O)cc1` (stereo partly drawn) [Compound 61, (S)-3-[5-(4-tert-Butylphenyl)-5,6,6-trimethyl-4,4-dioxo-5,6-dihydro-4H-4lambda6-[1,4,3]oxathiazin-2-ylamino]-3-(2-fluorophenyl)propan-1-ol], half-maximal inhibition (IC50) required 14 nM.
The result for `CC(C)(C)c1ccc(C2(C)C(C)(C)OC(N[C@@H](CCO)c3ccccc3)=NS2(=O)=O)cc1` (stereo partly drawn) [Compound 62, (S)-3-[5-(4-tert-Butylphenyl)-5,6,6-trimethyl-4,4-dioxo-5,6-dihydro-4H-4lambda6-[1,4,3]oxathiazin-2-ylamino]-3-phenylpropan-1-ol] reads 47 nM.
In the case of `C[C@H](NC1=NS(=O)(=O)C(C)(c2ccc(C(C)(C)C)cc2)C(C)(C)O1)c1ccccc1F` (stereo partly drawn) [Compound 63, [5-(4-tert-Butylphenyl)-5,6,6-trimethyl-4,4-dioxo-5,6-dihydro-4H-4lambda6-[1,4,3]oxathiazin-2-yl]-[(S)-1-(2-fluorophenyl)ethyl]amine] it was 32 nM; in that of `CC1(C)OC(NC2CCCCC2)=NS(=O)(=O)C1c1ccccc1` (stereo not drawn) [Example 1, Cyclohexyl-(6,6-dimethyl-4,4-dioxo-5-phenyl-5,6-dihydro-4H-4lambda6-[1,4,3]oxathiazin-2-yl)-amine], 113 nM.
In the case of `CC1(C)OC(N[C@@H](CCO)c2ccccc2)=NS(=O)(=O)C1c1ccccc1` (stereo partly drawn) [Example 2, (S)-3-(6,6-Dimethyl-4,4-dioxo-5-phenyl-5,6-dihydro-4H-4lambda6-[1,4,3]oxathiazin-2-ylamino)-3-phenyl-propan-1-ol] it was 17 nM.
For `CC1(C)OC(NC2CCCCC2)=NS(=O)(=O)C1c1ccc(-c2ccccc2)cc1` (stereo not drawn) [Example 3, (5-Biphenyl-4-yl-6,6-dimethyl-4,4-dioxo-5,6-dihydro-4H-4lambda6-[1,4,3]oxathiazin-2-yl)-cyclohexyl-amine], the IC50 came to 1270 nM.
The compound `CC1(C)OC(N[C@@H](CCO)c2ccccc2)=NS(=O)(=O)C1c1ccc(OCc2ccccc2)cc1` (stereo partly drawn) [Example 4, (S)-3-[5-(4-Benzyloxy-phenyl)-6,6-dimethyl-4,4-dioxo-5,6-dihydro-4H-4lambda6-[1,4,3]oxathiazin-2-ylamino]-3-phenyl-propan-1-ol] yielded an IC50 of 14 nM.
The result for `CC1(C)OC(N[C@@H](CCO)c2ccccc2)=NS(=O)(=O)C1c1ccc(O)cc1` (stereo partly drawn) [Example 5, 4-[2-((S)-3-Hydroxy-1-phenyl-propylamino)-6,6-dimethyl-4,4-dioxo-5,6-dihydro-4H-4lambda6-[1,4,3]oxathiazin-5-yl]-phenol] reads 1670 nM.
In the case of `COc1ccc(C2C(C)(C)OC(N[C@@H](CCO)c3ccccc3)=NS2(=O)=O)cc1` (stereo partly drawn) [Example 6, (S)-3-[5-(4-Methoxy-phenyl)-6,6-dimethyl-4,4-dioxo-5,6-dihydro-4H-4lambda6-[1,4,3]oxathiazin-2-ylamino]-3-phenyl-propan-1-ol] it was 29 nM; in that of `CC1(C)OC(N[C@@H](CCO)c2ccccc2)=NS(=O)(=O)C1c1cccc(Br)c1` (stereo partly drawn) [Example 7, (S)-3-[5-(3-Bromophenyl)-6,6-dimethyl-4,4-dioxo-5,6-dihydro-4H-4lambda6-[1,4,3]oxathiazin-2-ylamino]-3-phenyl-propan-1-ol], 20 nM.
On to `CC1(C)OC(N[C@@H](CCO)c2ccccc2)=NS(=O)(=O)C1c1cccc(-c2ccccc2)c1` (stereo partly drawn) [Example 8, (S)-3-(5-Biphenyl-3-yl-6,6-dimethyl-4,4-dioxo-5,6-dihydro-4H-4lambda6-[1,4,3]oxathiazin-2-ylamino)-3-phenyl-propan-1-ol], for which half-maximal inhibition (IC50) was put at 22 nM.
In the case of `Cc1cccc(C2C(C)(C)OC(N[C@@H](CCO)c3ccccc3)=NS2(=O)=O)c1` (stereo partly drawn) [Example 9, (S)-3-(6,6-Dimethyl-4,4-dioxo-5-m-tolyl-5,6-dihydro-4H-4lambda6-[1,4,3]oxathiazin-2-ylamino)-3-phenyl-propan-1-ol] it was 22 nM; in that of `CC1(C)OC(N[C@@H](CCO)c2ccccc2)=NS(=O)(=O)C1c1cccc(Cc2ccccc2)c1` (stereo partly drawn) [Example 10, (S)-3-[5-(3-Benzyl-phenyl)-6,6-dimethyl-4,4-dioxo-5,6-dihydro-4H-4lambda6-[1,4,3]oxathiazin-2-ylamino]-3-phenyl-propan-1-ol], 15 nM; in that of `Cc1ccc(C2C(C)(C)OC(N[C@@H](CCO)c3ccccc3)=NS2(=O)=O)cc1` (stereo partly drawn) [Example 11, (S)-3-(6,6-Dimethyl-4,4-dioxo-5-p-tolyl-5,6-dihydro-4H-4lambda6-[1,4,3]oxathiazin-2-ylamino)-3-phenyl-propan-1-ol], 9 nM.
The result for `CC1(C)OC(N[C@@H](CCO)c2ccccc2)=NS(=O)(=O)C1c1ccc(-c2ccccc2)cc1` (stereo partly drawn) [Example 12, (S)-3-(5-Biphenyl-4-yl-6,6-dimethyl-4,4-dioxo-5,6-dihydro-4H-4lambda6-[1,4,3]oxathiazin-2-ylamino)-3-phenyl-propan-1-ol] reads 45 nM; that for `CC1(C)OC(NC2CCCCC2)=NS(=O)(=O)C1c1cccc(Br)c1` (stereo not drawn) [Example 13, [5-(3-Bromophenyl)-6,6-dimethyl-4,4-dioxo-5,6-dihydro-4H-4lambda6-[1,4,3]oxathiazin-2-yl]-cyclohexyl-amine], 47 nM.
In the case of `CC1(C)OC(N[C@@H](CCO)c2ccccc2)=NS(=O)(=O)C1c1cccc(-c2cncnc2)c1` (stereo partly drawn) [Example 14, (S)-3-[6,6-Dimethyl-4,4-dioxo-5-(3-pyrimidin-5-yl-phenyl)-5,6-dihydro-4H-4lambda6-[1,4,3]oxathiazin-2-ylamino]-3-phenyl-propan-1-ol] it was 32 nM; in that of `CC1(C)OC(N[C@@H](CCO)c2ccccc2)=NS(=O)(=O)C1c1ccccc1Cl` (stereo partly drawn) [Example 15, (S)-3-[5-(2-Chlorophenyl)-6,6-dimethyl-4,4-dioxo-5,6-dihydro-4H-4lambda6-[1,4,3]oxathiazin-2-ylamino]-3-phenyl-propan-1-ol], 11 nM; in that of `Cc1ccccc1C1C(C)(C)OC(N[C@@H](CCO)c2ccccc2)=NS1(=O)=O` (stereo partly drawn) [Example 16, (S)-3-(6,6-Dimethyl-4,4-dioxo-5-o-tolyl-5,6-dihydro-4H-4lambda6-[1,4,3]oxathiazin-2-ylamino)-3-phenyl-propan-1-ol], 11 nM.
On to `CC1(C)OC(NC2CCCCC2)=NS(=O)(=O)C1(C)c1ccccc1` (stereo not drawn) [Example 18, Cyclohexyl-(5,6,6-trimethyl-4,4-dioxo-5-phenyl-5,6-dihydro-4H-4lambda6-[1,4,3]oxathiazin-2-yl)-amine], for which the IC50 is 36 nM.
The compound `CC1(C)OC(NC2CCCCC2)=NS(=O)(=O)C1c1cccc(OCc2ccccc2)c1` (stereo not drawn) [Example 19, [5-(3-Benzyloxy-phenyl)-6,6-dimethyl-4,4-dioxo-5,6-dihydro-4H-4lambda6-[1,4,3]oxathiazin-2-yl]-cyclohexyl-amine] had an IC50 of 352 nM.
The result for `CC1(C)OC(N[C@@H](CCO)c2ccccc2)=NS(=O)(=O)C1c1cccc(Cl)c1` (stereo partly drawn) [Example 20, (S)-3-[5-(3-Chloro-phenyl)-6,6-dimethyl-4,4-dioxo-5,6-dihydro-4H-4lambda6-[1,4,3]oxathiazin-2-ylamino]-3-phenyl-propan-1-ol] reads 21 nM.
In the case of `CC1(C)OC(NC2CCCCC2)=NS(=O)(=O)C1c1cccc(O)c1` (stereo not drawn) [Example 22, 3-(2-Cyclohexylamino-6,6-dimethyl-4,4-dioxo-5,6-dihydro-4H-4lambda6-[1,4,3]oxathiazin-5-yl)-phenol] it was 163 nM.

The record behind these values is patent US8895547B2, “Substituted phenyl-oxathiazine derivatives, method for producing them, drugs containing said compounds and the use thereof” (Sanofi, priority 2011, dated 2014).
